Experimental data published in article PMC10739260, “Shape-Based Virtual Screening of a Billion-Compound Library Identifies Mycobacterial Lipoamide Dehydrogenase Inhibitors” (ACS Bio & Med Chem Au, 2023).
Read-outs that look alike come from different tables or passages of the source.

How the values were obtained:
Mtb Lpd [1] = biological target: T1, Mtb Lpd (Mycobacterium tuberculosis, UniProt P9WHH9); experiment: Lpd enzyme assay (spectrophotometric, DTNB, lipoamide, NADH); type: biochemical; details: for potency improvement over des-methyl screen hit: methylated analogue vs Z1765676493 / Z819807984, Lpd IC50; for IC50: dose response 100 to 0.005 μM, values marked * from one replicate; for inhibition at 10 µM: compound at 10 μM, read-out: LPD %inh ± SD at 10 μM
T1 construct: made in house
Description: The Lpd enzyme assay was performed at a CRO with a previously reported protocol.[9],[11] Briefly, the Lpd activity was measured by a spectrophotometric assay with DTNB, lipoamide, and NADH. Final concentrations of components in the reaction mixture were as follows: 125 μM NADH, 125 μM DTNB, 40 μM NAD+, 75 μM lipoamide in 25 mM potassium phosphate, and 1 mM EDTA pH 7.0. Compounds were tested initially at 10 μM. Compounds showing significant inhibition at 10 μM were tested in dose–response from 100 to 0.005 μM by serial dilutions. Curves were fit, and IC50 values were calculated using Prism dose–response inhibition analysis (four-parameter fit).

Lpd protein = biological target: T2, Lpd protein (Mycobacterium tuberculosis, UniProt P9WHH9); experiment: Surface plasmon resonance (SPR) binding to immobilized Lpd; details: 25 °C
T2 construct: made in house
T2 sequence (P9WHH9 1-464): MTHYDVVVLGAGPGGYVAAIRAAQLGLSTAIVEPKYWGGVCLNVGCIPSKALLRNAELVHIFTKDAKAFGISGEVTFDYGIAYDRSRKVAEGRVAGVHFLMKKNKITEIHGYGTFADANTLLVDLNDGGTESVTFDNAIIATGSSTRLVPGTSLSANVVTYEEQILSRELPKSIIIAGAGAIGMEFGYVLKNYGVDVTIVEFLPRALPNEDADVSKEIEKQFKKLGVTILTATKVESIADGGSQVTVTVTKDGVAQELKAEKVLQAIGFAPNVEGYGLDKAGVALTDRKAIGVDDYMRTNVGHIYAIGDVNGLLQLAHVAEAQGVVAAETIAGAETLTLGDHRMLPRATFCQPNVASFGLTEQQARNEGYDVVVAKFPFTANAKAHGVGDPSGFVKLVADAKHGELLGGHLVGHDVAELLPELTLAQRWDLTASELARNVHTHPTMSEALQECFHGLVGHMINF

Mtb [2] = experiment: Mtb MIC assay (bacterial growth inhibition); type: cell-based, Mycobacterium tuberculosis; details: for Mtb MIC: Table S1, known actives used as probes in GPU Shape screen
Mtb [3] = test system: Mtb; parameters: method as in PMID 33527832; details: Figure 1, representative sulfonamide series inhibitors; cited from earlier work
Mtb Lpd [4] = biological target: T1, Mtb Lpd; details: read-out: Lpd IC50; Figure 1, representative sulfonamide series inhibitors; cited from earlier work
PDH complex = biological target: T3, PDH complex (Mycobacterium tuberculosis, UniProt P9WHH9); experiment: PDH complex inhibition; type: biochemical
T3 sequence (P9WHH9 1-464): T2 sequence (P9WHH9 1-464)

[5] = 1:1 Langmuir model, analyte line 013537

With CC(=O)Nc1cccc(NC(=O)CN(C)S(=O)(=O)c2cc(C)cc(C(F)F)c2)c1 [1 (TDI-13537)] the “potency improvement over des-methyl screen hit” value (Mtb Lpd [1]) was 15- to 20 fold, the Kd (Lpd protein; [5]) was 0.241 µM and the kd (Lpd protein; [5]) was 0.01243 s⁻¹. The Kd (Lpd protein; analyte line 013537-NADH) was 0.291 µM, the kd (Lpd protein; analyte line 013537-NADH) was 0.01141 s⁻¹ and the “inhibition of Mtb bacterial growth in the MIC assay” value (Mtb [2]; data not shown) was “did not show inhibition”.
With CCN(CC(=O)Nc1ccc(N2CCOCC2)cc1)S(=O)(=O)c1cc(C)c(F)c(C(F)(F)F)c1 [Compound 2] the IC50 (Mtb Lpd [1]) was 0.37 µM and the “potency improvement over des-methyl screen hit” value (Mtb Lpd [1]) was 15- to 20 fold.
Work on CCOC(=O)c1c(C)n[nH]c1S(=O)(=O)N(C)CC(=O)Nc1ccc(F)cc1 [Compound Z740306332] yielded an inhibition at 10 µM (Mtb Lpd [1]) of 9.6 ± 1.8% and an IC50 (Mtb Lpd [1]) of 100 µM.
In the case of CCN(CC(=O)Nc1ccc(N2CCOCC2)cc1)S(=O)(=O)c1ccc(F)c(C(F)(F)F)c1 [Compound Z819807984], the inhibition at 10 µM (Mtb Lpd [1]) is reported as 68.9 ± 0.9% and the IC50 (Mtb Lpd [1]) is reported as 5 ± 0.04 µM.
In the case of COC(=O)c1cccc(NC2CCN(C(=O)c3cc(C)cc4cn[nH]c34)CC2)c1 [Compound Z1464810837], the inhibition at 10 µM (Mtb Lpd [1]) is reported as 15.7 ± 4.6% and the IC50 (Mtb Lpd [1]) is reported as 30 µM.
In the case of CCN(CC(=O)Nc1cccc(OC)c1)S(=O)(=O)c1cccc2c1NC(=O)CO2 [Compound Z1601661851], the inhibition at 10 µM (Mtb Lpd [1]) is reported as 18.5 ± 1.6% and the IC50 (Mtb Lpd [1]) is reported as 30 µM.
Compound CN(CC(=O)Nc1cccc(F)c1)S(=O)(=O)c1cccc2c1NC(=O)CO2 [Compound Z1601662276] has an inhibition at 10 µM (Mtb Lpd [1]) of 12.7 ± 1.2% and an IC50 (Mtb Lpd [1]) of 100 µM.
For CC(=O)Nc1cccc(NC(=O)CN(C)S(=O)(=O)c2cccc(C(F)F)c2)c1 [Compound Z1765676493], the inhibition at 10 µM (Mtb Lpd [1]) was 69.1 ± 2.2% and the IC50 (Mtb Lpd [1]) was 3.5 ± 2.8 µM.
For COc1ccc(NC(=O)CN(C)S(=O)(=O)c2cc(Br)cnc2N)cc1 [SL827], the “Mtb MIC” value (Mtb [3]) is listed as greater than 100 µM.
In the case of Cc1cc(S(=O)(=O)N(C)CC(=O)Nc2ccn(C)c(=O)c2)c2[nH]ncc2c1 [TDI-010705], the “Mtb MIC” value (Mtb [3]) is given as 3.7 µM and the “Mtb MIC” value (Mtb [2]) is given as 4 µM.
In the case of Cc1cc(S(=O)(=O)N2CCC[C@H]2C(=O)Nc2ccn(C)c(=O)c2)c2[nH]ncc2c1 [TDI-011002], the IC50 (Mtb Lpd [4]) is listed as 0.05 µM, the IC50 (PDH complex) is listed as 0.19 µM and the “Mtb MIC” value (Mtb [3]) is listed as 25 µM. For the same compound, the “Mtb MIC” value (Mtb [2]) was 25 µM.
